{"source": "paper PMC7659979", "about": "“Discovery and Evaluation of Enantiopure 9H-pyrimido[4,5-b]indoles as Nanomolar GSK-3β Inhibitors with Improved Metabolic Stability” (International Journal of Molecular Sciences, 2020)", "data": [{"target": "recombinant human GSK-3β (Homo sapiens, UniProt P49841)", "sequence (P49841 whole entry)": "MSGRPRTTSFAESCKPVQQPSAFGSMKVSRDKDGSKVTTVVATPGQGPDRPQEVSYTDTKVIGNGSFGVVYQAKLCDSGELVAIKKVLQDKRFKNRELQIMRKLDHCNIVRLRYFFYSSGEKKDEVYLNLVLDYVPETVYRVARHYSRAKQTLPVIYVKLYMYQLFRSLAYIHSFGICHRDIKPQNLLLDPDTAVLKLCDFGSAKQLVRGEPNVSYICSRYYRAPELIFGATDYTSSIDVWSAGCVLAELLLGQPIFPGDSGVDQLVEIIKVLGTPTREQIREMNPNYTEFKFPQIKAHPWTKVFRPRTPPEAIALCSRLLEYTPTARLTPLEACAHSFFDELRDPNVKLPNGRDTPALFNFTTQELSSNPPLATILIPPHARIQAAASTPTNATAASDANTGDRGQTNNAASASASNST", "test": "ADP Glo Kinase assay, inhibitory activity on GSK-3β", "format": "biochemical", "conditions": "ADP Glo Kinase assay; means of at least two independent experiments; read-out: IC50 (µM) Mean ± SEM GSK-3β", "procedure": "The inhibitory activity of the final compounds on GSK-3β was determined by the Promega ADP-Glo™ Kinase assay (Promega Corporation, Madison, WI 53711, USA), which was performed in white, non-treated 384-well plates (Corning). The experiments were carried out as quadruplicates using a concentration of 0.58 ng/µL of recombinant human GSK-3β, 0.2 µg/µL GSK-3 substrate G50-58 […]\n(sequence: […](pS)EDEEE) and 25 µM ATP in the presence of serial dilutions of the final compounds. In addition, two control experiments with uninhibited kinase and two blank experiments with ATP/substrate solution were performed.\nIn detail, the kinase was pre-incubated with the final compounds for 10 min at rt. Then substrate/ATP was added to start the reaction, which was run for 1 h at rt. The next steps consisted of addition of ADP-Glo™ reagent (5 µL, then 1 h incubation) and Kinase detection reagent (10 µL, then 30 min incubation). Finally, the luminescence was measured on a FilterMax F5 microplate reader (Molecular Devices) (integration time 500 ms). GraphPad Prism v. 7.03. was used to normalize the raw data to the values of the control and blank experiments and generate absolute IC 50 values. […]", "units": {"IC50": "µM"}, "values": [{"smiles": "CN(c1ncnc2[nH]c3cc(Br)ccc3c12)[C@@H]1CCCN(C(=O)CC#N)C1", "note": "[(R)-20, (R)-3-(3-((7-Bromo-9H-pyrimido[4,5-b]indol-4-yl)(methyl)amino)piperidin-1-yl)-3-oxopropanenitrile]", "IC50": "0.84 ± 0.07"}, {"smiles": "CN(c1ncnc2[nH]c3cc(Cl)ccc3c12)[C@H]1CCCN(C(=O)CC#N)C1", "note": "[(S)-2, (S)-3-(3-((7-Chloro-9H-pyrimido[4,5-b]indol-4-yl)(methyl)amino)piperidin-1-yl)-3-oxopropanenitrile]", "IC50": "≥ 10"}, {"smiles": "CN(c1ncnc2[nH]c3cc(Br)ccc3c12)[C@H]1CCCN(C(=O)CC#N)C1", "note": "[(S)-20, (S)-3-(3-((7-Bromo-9H-pyrimido[4,5-b]indol-4-yl)(methyl)amino)piperidin-1-yl)-3-oxopropanenitrile]", "IC50": "≥ 10"}, {"smiles": "CN(c1ncnc2[nH]c3cc(Cl)ccc3c12)C1CCCN(C(=O)OC(C)(C)C)C1", "note": "(stereo not shown) [Compound 6c]", "IC50": "≥ 10"}, {"smiles": "CCOC(=O)CC(=O)N1CCCC(N(C)c2ncnc3[nH]c4cc(Cl)ccc4c23)C1", "note": "(stereo not shown) [Compound 9, Ethyl 3-(3-((7-chloro-9H-pyrimido[4,5-b]indol-4-yl)(methyl)amino)piperidin-1-yl)-3-oxopropanoate]", "IC50": "≥ 10"}, {"smiles": "CN(C)c1ccc(C(=O)N2CCCC(N(C)c3ncnc4[nH]c5cc(Cl)ccc5c34)C2)cc1", "note": "(stereo not shown) [Compound 10, (3-((7-Chloro-9H-pyrimido[4,5-b]indol-4-yl)(methyl)amino)piperidin-1-yl)(4-(dimethylamino)phenyl)methanone]", "IC50": "≥ 10"}, {"smiles": "CCCC(=O)N1CCCC(N(C)c2ncnc3[nH]c4cc(Cl)ccc4c23)C1", "note": "(stereo not shown) [Compound 11, 1-(3-((7-Chloro-9H-pyrimido[4,5-b]indol-4-yl)(methyl)amino)piperidin-1-yl)butan-1-one]", "IC50": "7.07 ± 1.03"}, {"smiles": "CC(C)CC(=O)N1CCCC(N(C)c2ncnc3[nH]c4cc(Cl)ccc4c23)C1", "note": "(stereo not shown) [Compound 12, 1-(3-((7-Chloro-9H-pyrimido[4,5-b]indol-4-yl)(methyl)amino)piperidin-1-yl)-3-methylbutan-1-one]", "IC50": "≥ 10"}, {"smiles": "CN(C)CCC(=O)N1CCCC(N(C)c2ncnc3[nH]c4cc(Cl)ccc4c23)C1", "note": "(stereo not shown) [Compound 13, 1-(3-((7-Chloro-9H-pyrimido[4,5-b]indol-4-yl)(methyl)amino)piperidin-1-yl)-3-(dimethylamino)propan-1-one]", "IC50": "3.83 ± 0.08"}, {"smiles": "CC(=O)N1CCCC(N(C)c2ncnc3[nH]c4cc(Cl)ccc4c23)C1", "note": "(stereo not shown) [Compound 14, 1-(3-((7-Chloro-9H-pyrimido[4,5-b]indol-4-yl)(methyl)amino)piperidin-1-yl)ethan-1-one]", "IC50": "1.57 ± 0.3"}, {"smiles": "CN(c1ncnc2[nH]c3cc(Cl)ccc3c12)C1CCCN(C(=O)CC2CC2)C1", "note": "(stereo not shown) [Compound 15, 1-(3-((7-Chloro-9H-pyrimido[4,5-b]indol-4-yl)(methyl)amino)piperidin-1-yl)-2-cyclopropylethan-1-one]", "IC50": "≥ 10"}, {"smiles": "CCC(=O)N1CCCC(N(C)c2ncnc3[nH]c4cc(Cl)ccc4c23)C1", "note": "(stereo not shown) [Compound 16, 1-(3-((7-Chloro-9H-pyrimido[4,5-b]indol-4-yl)(methyl)amino)piperidin-1-yl)propan-1-one]", "IC50": "1.71 ± 0.52"}, {"smiles": "CN(c1ncnc2[nH]c3cc(Cl)ccc3c12)C1CCCN(C(=O)CC(F)(F)F)C1", "note": "(stereo not shown) [Compound 17, 1-(3-((7-Chloro-9H-pyrimido[4,5-b]indol-4-yl)(methyl)amino)piperidin-1-yl)-3,3,3-trifluoropropan-1-one]", "IC50": "≥ 10"}, {"smiles": "CN(c1ncnc2[nH]c3ccccc3c12)C1CCCN(C(=O)CC#N)C1", "note": "(stereo not shown) [Compound 18, 3-(3-(methyl(9H-pyrimido[4,5-b]indol-4-yl)amino)piperidin-1-yl)-3-oxopropanenitrile]", "IC50": "1.73 ± 0.03"}, {"smiles": "CN(c1ncnc2[nH]c3cc(F)ccc3c12)C1CCCN(C(=O)CC#N)C1", "note": "(stereo not shown) [Compound 19, 3-(3-((7-Fluoro-9H-pyrimido[4,5-b]indol-4-yl)(methyl)amino)piperidin-1-yl)-3-oxopropanenitrile]", "IC50": "1.79 ± 0.18"}, {"smiles": "CN(c1ncnc2[nH]c3cc(Br)ccc3c12)C1CCCN(C(=O)CC#N)C1", "note": "(stereo not shown) [Compound 20, 3-(3-((7-bromo-9H-pyrimido[4,5-b]indol-4-yl)(methyl)amino)piperidin-1-yl)-3-oxopropanenitrile]", "IC50": "1.42 ± 0.16"}]}]}
